Test results taken from publication PMC11864979, “First-in-class ultralong-target-residence-time p38α inhibitors as a mitosis-targeted therapy for colorectal cancer” (Nature Cancer, 2025).
Where two headings read alike, the source gives them in different places.

Experiments:
Assay in all cases: selectivity profiling in a panel of 340 wild-type kinases (Reaction Biology Europe)
Type in all cases: binding
340 wild-type kinases [1] = target: T1, 340 wild-type kinases (Homo sapiens, UniProt P42685)
T1 construct: purchased Reaction Biology Europe

340 wild-type kinases [2] = target: T2, 340 wild-type kinases (Homo sapiens, UniProt P21709)
T2 construct: purchased Reaction Biology Europe
T2 sequence (P21709 26-976): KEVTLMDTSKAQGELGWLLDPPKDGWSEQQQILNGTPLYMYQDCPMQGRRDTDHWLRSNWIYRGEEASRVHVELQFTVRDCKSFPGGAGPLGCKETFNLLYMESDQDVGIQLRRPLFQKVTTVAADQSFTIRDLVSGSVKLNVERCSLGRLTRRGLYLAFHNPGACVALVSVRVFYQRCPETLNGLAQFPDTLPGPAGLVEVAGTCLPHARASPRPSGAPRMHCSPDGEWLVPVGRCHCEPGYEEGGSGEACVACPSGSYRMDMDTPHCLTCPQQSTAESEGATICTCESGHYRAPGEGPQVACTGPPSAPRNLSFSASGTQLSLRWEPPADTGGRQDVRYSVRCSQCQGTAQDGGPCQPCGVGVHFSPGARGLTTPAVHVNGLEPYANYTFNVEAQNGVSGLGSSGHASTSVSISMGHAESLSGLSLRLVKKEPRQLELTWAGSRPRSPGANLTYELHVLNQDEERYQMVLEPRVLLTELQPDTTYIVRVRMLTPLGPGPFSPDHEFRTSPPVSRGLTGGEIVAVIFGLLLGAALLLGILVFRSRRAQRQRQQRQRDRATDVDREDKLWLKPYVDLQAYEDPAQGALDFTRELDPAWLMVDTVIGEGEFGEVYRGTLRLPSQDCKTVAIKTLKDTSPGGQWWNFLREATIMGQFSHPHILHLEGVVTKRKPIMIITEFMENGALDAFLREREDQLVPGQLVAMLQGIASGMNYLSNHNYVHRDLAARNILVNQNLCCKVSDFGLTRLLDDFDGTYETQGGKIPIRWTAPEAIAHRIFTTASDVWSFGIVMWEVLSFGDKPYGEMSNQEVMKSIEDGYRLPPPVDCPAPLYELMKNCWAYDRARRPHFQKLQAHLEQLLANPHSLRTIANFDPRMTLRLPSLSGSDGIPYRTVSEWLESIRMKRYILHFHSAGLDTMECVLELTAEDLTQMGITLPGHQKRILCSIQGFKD

340 wild-type kinases [3] = target: T3, 340 wild-type kinases (Homo sapiens, UniProt Q9NZJ5)
T3 construct: purchased Reaction Biology Europe
T3 sequence (Q9NZJ5 30-1116): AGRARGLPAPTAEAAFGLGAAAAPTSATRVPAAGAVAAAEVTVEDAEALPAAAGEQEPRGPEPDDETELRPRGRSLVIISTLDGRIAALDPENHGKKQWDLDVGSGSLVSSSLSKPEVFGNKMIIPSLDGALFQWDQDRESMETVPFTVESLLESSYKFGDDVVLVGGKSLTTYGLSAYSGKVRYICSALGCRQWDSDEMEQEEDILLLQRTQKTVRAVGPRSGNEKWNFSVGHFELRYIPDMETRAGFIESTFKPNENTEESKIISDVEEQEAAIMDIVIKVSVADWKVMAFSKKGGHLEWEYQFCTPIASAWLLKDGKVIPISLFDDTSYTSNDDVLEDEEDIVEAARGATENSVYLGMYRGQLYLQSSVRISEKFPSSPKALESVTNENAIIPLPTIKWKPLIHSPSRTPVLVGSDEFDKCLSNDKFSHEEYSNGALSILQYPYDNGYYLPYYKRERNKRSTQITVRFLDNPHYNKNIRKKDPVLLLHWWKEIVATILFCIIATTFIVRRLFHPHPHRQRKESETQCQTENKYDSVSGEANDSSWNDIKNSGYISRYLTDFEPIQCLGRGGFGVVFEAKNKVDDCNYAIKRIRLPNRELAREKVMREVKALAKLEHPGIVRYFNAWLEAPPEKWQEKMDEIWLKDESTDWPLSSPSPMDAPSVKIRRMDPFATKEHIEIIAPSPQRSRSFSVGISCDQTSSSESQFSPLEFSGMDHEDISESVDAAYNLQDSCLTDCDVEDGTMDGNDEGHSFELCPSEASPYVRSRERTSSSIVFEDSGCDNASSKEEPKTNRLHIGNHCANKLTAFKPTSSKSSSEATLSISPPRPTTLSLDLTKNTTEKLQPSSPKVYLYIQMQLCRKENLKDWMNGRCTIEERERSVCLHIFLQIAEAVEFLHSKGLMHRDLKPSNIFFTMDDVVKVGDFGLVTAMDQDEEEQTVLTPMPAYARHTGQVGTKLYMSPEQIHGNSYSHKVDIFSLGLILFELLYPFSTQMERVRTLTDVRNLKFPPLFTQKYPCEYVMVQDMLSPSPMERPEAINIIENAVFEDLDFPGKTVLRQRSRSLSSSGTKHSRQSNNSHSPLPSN

340 wild-type kinases [4] = target: T4, 340 wild-type kinases (Homo sapiens, UniProt P53779)
T4 construct: purchased Reaction Biology Europe

340 wild-type kinases [5] = target: T5, 340 wild-type kinases (Homo sapiens, UniProt Q9UQB9)
T5 construct: purchased Reaction Biology Europe
T5 sequence (Q9UQB9 1-309): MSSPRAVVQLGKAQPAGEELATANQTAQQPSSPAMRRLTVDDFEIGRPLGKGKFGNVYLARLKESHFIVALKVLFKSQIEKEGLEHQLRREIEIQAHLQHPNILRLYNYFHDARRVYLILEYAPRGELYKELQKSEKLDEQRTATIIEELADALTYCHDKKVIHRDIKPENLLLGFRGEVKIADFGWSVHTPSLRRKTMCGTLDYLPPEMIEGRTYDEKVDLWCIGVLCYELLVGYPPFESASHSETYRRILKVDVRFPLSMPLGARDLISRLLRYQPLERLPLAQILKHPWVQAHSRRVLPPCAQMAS

340 wild-type kinases [6] = target: T6, 340 wild-type kinases (Homo sapiens, UniProt O60674)
T6 construct: purchased Reaction Biology Europe
T6 sequence (O60674 whole entry): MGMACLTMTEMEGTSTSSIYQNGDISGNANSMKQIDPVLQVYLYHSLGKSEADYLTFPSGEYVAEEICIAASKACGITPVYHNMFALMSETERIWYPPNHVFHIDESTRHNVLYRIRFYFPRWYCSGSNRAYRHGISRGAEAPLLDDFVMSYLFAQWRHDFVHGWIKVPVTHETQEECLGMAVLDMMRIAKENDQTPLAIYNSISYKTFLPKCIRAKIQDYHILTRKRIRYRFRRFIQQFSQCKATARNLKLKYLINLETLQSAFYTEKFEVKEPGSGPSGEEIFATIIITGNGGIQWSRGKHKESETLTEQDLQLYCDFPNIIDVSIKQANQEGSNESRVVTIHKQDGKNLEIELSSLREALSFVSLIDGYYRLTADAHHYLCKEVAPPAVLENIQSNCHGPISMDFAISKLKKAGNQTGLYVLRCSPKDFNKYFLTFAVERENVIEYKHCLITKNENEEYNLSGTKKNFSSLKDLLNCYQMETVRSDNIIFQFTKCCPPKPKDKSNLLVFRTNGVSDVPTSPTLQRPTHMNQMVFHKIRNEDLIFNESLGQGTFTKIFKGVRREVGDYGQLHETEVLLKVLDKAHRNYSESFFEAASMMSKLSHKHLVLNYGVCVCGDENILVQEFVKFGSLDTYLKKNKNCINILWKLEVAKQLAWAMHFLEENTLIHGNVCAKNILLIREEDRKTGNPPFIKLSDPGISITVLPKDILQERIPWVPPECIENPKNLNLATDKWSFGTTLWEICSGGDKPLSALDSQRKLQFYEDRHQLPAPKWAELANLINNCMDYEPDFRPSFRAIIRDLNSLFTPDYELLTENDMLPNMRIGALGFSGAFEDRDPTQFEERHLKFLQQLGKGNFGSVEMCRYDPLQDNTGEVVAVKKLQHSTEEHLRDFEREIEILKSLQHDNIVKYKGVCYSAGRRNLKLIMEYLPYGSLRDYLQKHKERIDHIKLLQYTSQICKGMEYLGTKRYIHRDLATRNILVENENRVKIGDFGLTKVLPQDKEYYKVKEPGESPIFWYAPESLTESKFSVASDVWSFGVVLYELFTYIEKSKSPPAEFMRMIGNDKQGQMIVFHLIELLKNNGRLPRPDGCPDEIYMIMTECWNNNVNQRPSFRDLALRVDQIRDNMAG

T1 sequence (P42685 whole entry): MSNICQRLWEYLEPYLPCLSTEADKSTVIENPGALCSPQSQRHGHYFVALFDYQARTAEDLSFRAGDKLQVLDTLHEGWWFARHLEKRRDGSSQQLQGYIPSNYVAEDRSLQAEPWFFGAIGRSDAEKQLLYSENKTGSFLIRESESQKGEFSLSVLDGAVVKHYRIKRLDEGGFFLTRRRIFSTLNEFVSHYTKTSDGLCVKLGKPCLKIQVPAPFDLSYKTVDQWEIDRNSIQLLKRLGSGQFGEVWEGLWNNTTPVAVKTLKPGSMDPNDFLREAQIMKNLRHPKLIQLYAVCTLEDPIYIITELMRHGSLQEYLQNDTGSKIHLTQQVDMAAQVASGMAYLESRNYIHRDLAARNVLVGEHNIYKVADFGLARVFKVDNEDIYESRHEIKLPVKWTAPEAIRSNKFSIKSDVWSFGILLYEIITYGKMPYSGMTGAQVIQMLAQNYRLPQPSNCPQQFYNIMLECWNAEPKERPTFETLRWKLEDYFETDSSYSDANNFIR
T4 sequence (P53779 whole entry): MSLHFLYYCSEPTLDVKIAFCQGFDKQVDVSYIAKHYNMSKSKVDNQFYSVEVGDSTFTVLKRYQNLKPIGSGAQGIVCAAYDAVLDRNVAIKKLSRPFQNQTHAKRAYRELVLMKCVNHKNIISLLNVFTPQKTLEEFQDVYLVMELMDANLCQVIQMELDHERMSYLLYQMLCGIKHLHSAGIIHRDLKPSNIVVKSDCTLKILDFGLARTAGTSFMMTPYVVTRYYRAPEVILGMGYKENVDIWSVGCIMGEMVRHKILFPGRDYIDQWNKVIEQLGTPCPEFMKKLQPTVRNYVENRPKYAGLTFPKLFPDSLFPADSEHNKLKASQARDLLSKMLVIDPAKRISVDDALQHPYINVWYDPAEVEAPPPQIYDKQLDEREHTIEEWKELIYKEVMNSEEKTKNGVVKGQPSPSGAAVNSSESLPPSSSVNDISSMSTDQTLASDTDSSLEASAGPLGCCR

In the case of CNC(=O)c1ccc2c(c1)C(=O)c1ccc(Nc3ccc(F)c(NC(=O)C4CC4)c3)cc1CC2 [Compound 2015], the remaining activity at 0.2 µM (340 wild-type kinases [1]; 0.2 µM 2015, read-out: FRK residual activity) was 126%, the remaining activity at 1 µM (340 wild-type kinases [1]; 1 µM 2015, read-out: FRK residual activity) was 110% and the remaining activity at 0.2 µM (340 wild-type kinases [1]; FRK, 0.2 µM, read-out: residual activity) was 126%. For the same molecule, the remaining activity at 1 µM (340 wild-type kinases [1]; FRK, 1 µM, read-out: residual activity) was 110%, the remaining activity at 0.2 µM (340 wild-type kinases [2]; 0.2 µM 2015, read-out: EPHA1 residual activity) was 87.2% and the remaining activity at 1 µM (340 wild-type kinases [2]; 1 µM 2015, read-out: EPHA1 residual activity) was 82.1%. For the same molecule, the remaining activity at 0.2 µM (340 wild-type kinases [2]; EPHA1, 0.2 µM, read-out: residual activity) was 87.2%, the remaining activity at 1 µM (340 wild-type kinases [2]; EPHA1, 1 µM, read-out: residual activity) was 82.1% and the remaining activity at 1 µM (340 wild-type kinases [3]; 1 µM 2015, read-out: EIF2AK3 residual activity) was 86.3%. It also gave a remaining activity at 0.2 µM (340 wild-type kinases [3]; EIF2AK3, 0.2 µM, read-out: residual activity) of 93.3%, a remaining activity at 1 µM (340 wild-type kinases [3]; EIF2AK3, 1 µM, read-out: residual activity) of 86.3% and a remaining activity at 0.2 µM (340 wild-type kinases [4]; 0.2 µM 2015, read-out: JNK3 residual activity) of 90.9%. It also gave a remaining activity at 1 µM (340 wild-type kinases [4]; 1 µM 2015, read-out: JNK3 residual activity) of 100%, a remaining activity at 0.2 µM (340 wild-type kinases [4]; JNK3, 0.2 µM, read-out: residual activity) of 90.9% and a remaining activity at 1 µM (340 wild-type kinases [4]; JNK3, 1 µM, read-out: residual activity) of 100%. For the same molecule, the remaining activity at 0.2 µM (340 wild-type kinases [5]; 0.2 µM 2015, read-out: AuroraC residual activity) was 88.5%, the remaining activity at 1 µM (340 wild-type kinases [5]; 1 µM 2015, read-out: AuroraC residual activity) was 96.3% and the remaining activity at 0.2 µM (340 wild-type kinases [5]; AuroraC, 0.2 µM, read-out: residual activity) was 88.5%. It also gave a remaining activity at 1 µM (340 wild-type kinases [5]; AuroraC, 1 µM, read-out: residual activity) of 96.3%, a remaining activity at 0.2 µM (340 wild-type kinases [6]; 0.2 µM 2015, read-out: JAK2 residual activity) of 104% and a remaining activity at 1 µM (340 wild-type kinases [6]; 1 µM 2015, read-out: JAK2 residual activity) of 102%. The remaining activity at 0.2 µM (340 wild-type kinases [6]; JAK2, 0.2 µM, read-out: residual activity) was 104% and the remaining activity at 1 µM (340 wild-type kinases [6]; JAK2, 1 µM, read-out: residual activity) was 102%.
